Experimental data published in patent US20140116103A1, “FOLIARLY APPLICABLE SILICON NUTRITION COMPOSITIONS & METHODS” (priority 2008, published 2014).

How the values were obtained:
[1] = generally accepted limit; cited from earlier work
Bipolaris oryzae = format: in vivo, Bipolaris oryzae on rice; conditions: A, B, C, F compared to control, D compared to A
Procedure: The trial was arranged in a completely randomized design with five replications. Each experimental unit consisted of one plastic container with 5 liters of nutrient solution and four rice plants. The experiment was repeated once. Compositions A-F were applied to rice leaves as foliar sprays 24 hours before inoculation with the brown spot pathogen Bipolaris oryzae. Solutions of compositions A-D were prepared at 2% concentration. The fungicide (composition F) was prepared at 1.5 ml/liter concentration. Plants at the fifth leaf tiller growth stage were sprayed using a DeVilbiss No. 15 atomizer. The base of the plants was covered during spraying to prevent run-off of the sprayed materials into the nutrient solution.
A pathogenic isolate of B. oryzae (CNPAF-HO 82), obtained from symptomatic rice plants, was used to inoculate the plants. A conidial suspension of B. oryzae (5×10^3 conidia/ml) was applied as a fine mist to the adaxial leaf blades of each plant until runoff using a VL Airbrush atomizer (Paasche Airbrush Co., Chicago, Ill.). Immediately after inoculation, plants were transferred to a mist chamber at 25±2° C. with an initial 24 h dark period. […]
Brown spot severity on leaves of each plant was scored at 24, 48, 72 and 96 hours after inoculation using an International Rice Research Institute (IRRI) scale based on the percentage of diseased leaf area.

Row | SMILES | limit of solubility in water [1] | necrotic lesions on leaves (number and size) (Bipolaris oryzae)
1 | O[Si](O)(O)O [monosilicic acid] | about 2 mM | –
2 | CC1COC(Cn2cncn2)(c2ccc(Oc3ccc(Cl)cc3)cc2Cl)O1 (centres unmarked) [Composition F, diphenoconazole] | – | complete absence of lesions
